US9844535B2, “SHP2 inhibitors and methods of treating autoimmune and/or glomerulonephritis-associated diseases using SHP2 inhibitors” (Indiana University Research and Technology Corporation, priority 2013, dated 2017)
“Also recorded” adds a separate entry of the source.

Columns and labels:
SHP2 = SHP2 (Mus musculus (Mouse), UniProt P35235); experiment: Immune complex PTP assay on tissue lysates of inhibitor-treated MRL/lpr mice; assay type: in vivo; settings: 7.5 mg/kg daily for 4 weeks, listed as SHP2 inhibitor
SHP2, sequence (P35235 whole entry): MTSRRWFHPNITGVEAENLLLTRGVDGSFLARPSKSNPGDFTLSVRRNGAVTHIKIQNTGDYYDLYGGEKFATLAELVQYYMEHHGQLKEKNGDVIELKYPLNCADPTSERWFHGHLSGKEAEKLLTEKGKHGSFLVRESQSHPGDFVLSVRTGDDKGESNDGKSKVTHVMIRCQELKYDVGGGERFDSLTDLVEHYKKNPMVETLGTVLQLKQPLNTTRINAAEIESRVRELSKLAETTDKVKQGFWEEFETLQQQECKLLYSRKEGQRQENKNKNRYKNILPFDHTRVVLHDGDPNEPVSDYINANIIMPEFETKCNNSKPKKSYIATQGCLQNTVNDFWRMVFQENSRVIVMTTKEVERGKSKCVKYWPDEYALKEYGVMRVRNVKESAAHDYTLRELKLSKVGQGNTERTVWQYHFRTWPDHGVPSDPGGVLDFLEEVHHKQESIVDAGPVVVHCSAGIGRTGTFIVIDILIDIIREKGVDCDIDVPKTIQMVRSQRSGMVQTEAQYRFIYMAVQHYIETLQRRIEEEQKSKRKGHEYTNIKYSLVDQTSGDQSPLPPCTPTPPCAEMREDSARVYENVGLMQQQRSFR
Procedure: Briefly, female MRL/MpJ-fas lpr (MRL/lpr), MRL/Mpj and C57BL/6J mice were purchased from the Jackson Laboratory (Bar Harbor, Me.). For experiments, mice within each group were ip injected with either vehicle (DMSO) or the SHP2 inhibitor (7.5 mg/kg/per day). […] Body weight was measured daily and treatment dosage was adjusted accordingly. At the end of the treatment period, mice were sacrificed with CO2 exsanguination and SLE targeted organs were removed. For each mouse, spleen, kidney, and heart weight were calculated. In addition, total animal body weight and tibia length were measured. Peripheral blood/serum was also collected for use in the cytokine assays described below.
PTP assays were conducted as previously described in Kontaridis et al., J Biol Chem. 2006; 281:6785-6792, using para-nitrophenyl phosphate (pNPP, obtained from Sigma) as substrate. […] Reactions were terminated with 0.2 N NaOH and phosphate release was determined by measuring A410. […]

[1] = tested on: MRL/lpr mouse spleen immune cells; experiment: Cellular immune response in spleen (histology, flow cytometry); assay type: in vivo
Description: Harvested organs (kidney, spleen, and heart) to be used to assess morphometry and histochemistry were flushed with PBS, perfusion fixed in Bouin's reagent, and paraffin embedded. Sections (5 μm) were stained with Hematoxylin and Eosin (H&E), Periodic acid—Schiff stain (PAS), Masson-Trichrome, or reticulin staining at the Harvard Medical School Rodent Histopathology Core and scored using an unbiased approach, in which histology scores of 1 (normal) to 5 (most severe pathology) were designated to tissue sections which were only numerically labeled and in no particular order (by Dr. Roderick Bronson, director of the Rodent Histopathology Core, Harvard Medical School). Numerical sections were later decoded, marked for their designated score, and statistically analyzed. Images of the tissue sections were obtained and quantified on a Keyence BZ-9000 Microscope (Keyence Corporation, Itasca, Ill.).
Spleens were cut into 2 to 3 pieces each and homogenized on a 70 μm nylon mesh in 5 ml of HBSS buffer. The cells were filtered through a 70 μm nylon mesh to a new 50 ml tube and centrifuged at 2000 rpm for 5 minutes at room temperature. […]
To identify immune cell subsets, isolated cells from tissues were immunostained with mouse antibodies targeted against CD3E (145-2C11, BioLegend, San Diego, Calif.), CD4 (GK1.5, BioLegend), CD8 (53-6.7, eBioscience, San Diego, Calif.), CD45 (30-F11, eBioscience), CD 19 (6125, BioLegend), CD11b (M1170, BioLegend), TCRαβ (H57-597, BioLegend), CD44 (IM7, BioLegend), B220 (RA3-6B2, B.D. […], BD Biosciences, San Jose Calif.), CD138 (281-2, BioLegend), CD38 (CD28.2, BioLegend), Gr-1 (RB6.805, eBioscience), CD62L (DREG-56, BioLegend), and CD25 (PC61, BioLegend) for 30 minutes at 4° C. Samples were acquired on a LSR II flow cytometer (BD Biosciences) and the percentage of each sub-population of cells (B, T, monocytes, macrophage and neutrophils) was assessed by FlowJo [version 7.2.2 (Tree Star)]. Total cell numbers were counted using a hemocytometer. Absolute cell numbers for each sub-population were calculated based on the percentage of each population. […]

[2] = tested on: circulating blood cells of SLE-prone mice; experiment: Blood cell counts and circulating lymphocyte subsets; assay type: in vivo, mouse
Procedure: 50 μl of peripheral blood was collected from mice upon sacrifice and was mixed with 5 mM EDTA anticoagulant to be used for blood cell counts (Hemavet 850FS), to determine numbers of white blood cells (neutrophil, lymphocytes, monocytes, eosinophil and basophil), red blood cells and platelets. In addition, peripheral blood isolated from MRL/lpr mice either treated with vehicle (DMSO) or SHP2 inhibitor was used to count the percentage of lymphocyte subsets, including B cells, CD4+, CD8+ and double negative (DN) T cells through flow cytometry (see below).
To identify immune cell subsets, isolated cells from tissues were immunostained with mouse antibodies targeted against CD3E (145-2C11, BioLegend, San Diego, Calif.), CD4 (GK1.5, BioLegend), CD8 (53-6.7, eBioscience, San Diego, Calif.), CD45 (30-F11, eBioscience), CD 19 (6125, BioLegend), CD11b (M1170, BioLegend), TCRαβ (H57-597, BioLegend), CD44 (IM7, BioLegend), B220 (RA3-6B2, B.D. […], BD Biosciences, San Jose Calif.), CD138 (281-2, BioLegend), CD38 (CD28.2, BioLegend), Gr-1 (RB6.805, eBioscience), CD62L (DREG-56, BioLegend), and CD25 (PC61, BioLegend) for 30 minutes at 4° C. Samples were acquired on a LSR II flow cytometer (BD Biosciences) and the percentage of each sub-population of cells (B, T, monocytes, macrophage and neutrophils) was assessed by FlowJo [version 7.2.2 (Tree Star)]. Total cell numbers were counted using a hemocytometer. Absolute cell numbers for each sub-population were calculated based on the percentage of each population.

Cn1c(-c2cccc(NC(=O)C(=O)Nc3ccc(-c4ccsc4)cc3)c2)c(I)c2cc(C(=O)O)c(O)cc21 [11a-1]
SHP2 activity in tissue lysates (SHP2): normalized SHP2 activity back to levels of WT; also recorded: normalize SHP2 activity
overall splenic T cell counts ([1]; MRL/lpr mice): overall splenic T cell counts were reduced
splenic CD4, CD8 and double-negative T cells ([1]; MRL/lpr mice): significant reduction in CD4, CD8, and double-negative T cells
germinal center formation in the spleen ([1]; MRL/lpr mice vs vehicle): greatly reduced
circulating CD4 and CD8 positive T cell populations ([2]; SLE mice): not the CD4 and CD8 positive T cell populations
circulating T cell leukocyte population ([2]; SLE mice): significantly altered in SLE and inhibited
circulating double negative T cells ([2]; SLE mice): only the double negative cells
circulating leukocytes ([2]; SLE mice vs vehicle): significantly reduced
circulating neutrophils, monocytes, eosinophils, basophils ([2]; SLE mice vs vehicle): not neutrophils, monocytes, eosinophils, or basophils
red blood cells or platelets ([2]; SLE mice vs vehicle): no effects observed
white blood cell (WBC) population ([2]; SLE mice vs vehicle): specifically targets the white blood cell (WBC) population
